We go through six compounds from patent publication US20240245680A1, “Methods of Treating Retinal Vasculopathies” (Unity Biotechnology, Inc., priority 2021, published 2024).

pIC50: −log10 of the molar value. Structures can show the parent of a compound that is named as a salt.

The subject of experiment [1] is irradiated, senescent HUVEC cells. Put plainly: Senolytic assay: irradiated senescent vs non-senescent HUVEC cells (CellTiter-Glo). The following applies: 1:3 dilution series, dose-dependent (FIG. 3B, 4, 6A, 6B). It is filed as cell-based, human. An excerpt:
(§1) The ability of candidate agents to eliminate senescent retinal vascular endothelial cells or senescent retinal pigmented epithelial cells can be measured directly in the following assay. Human retinal microvascular endothelial cells (HRMEC) can be obtained from Neuromics® with the designation HEC09 or Cell Systems ACBRI 181. Human umbilical vein endothelial cells (HUVEC) can be obtained from Lonza® with the designation CC-2519. The cells can be maintained and propagated at <75% confluency in ENDO-Growth® Media (Neuromics®, Edina M N) at 3% O2, 10% CO2, and ˜95% humidity. Human retinal pigmented epithelial cells (RPE) can be obtained from Lonza® with the designation 194987. […]
(§2) On day 0, the irradiated HRMEC or RPE or HUVEC cells can be incubated with TrypLE trypsin-containing reagent (Thermofisher® Scientific, Waltham, Massachusetts) until the cells round up and begin to detach from the plate. Cells can then be dispersed, counted, and prepared in medium at a concentration of 100,000 cells per mL. […] On day 3, the quiescent healthy non-senescent HRMEC or RPE cells can be trypsinized from the culture flask as described above, and the cells can be dispersed, counted, and prepared in medium at a concentration of 80,000 cells per mL. […]
(Cellular ATP, detected with luciferase, serves as a proxy for viable cell number.)

The target of experiment [2] is T1, transglutaminase 2 (TGase 2) (Homo sapiens, UniProt P21980).
T1 sequence (P21980 1-687): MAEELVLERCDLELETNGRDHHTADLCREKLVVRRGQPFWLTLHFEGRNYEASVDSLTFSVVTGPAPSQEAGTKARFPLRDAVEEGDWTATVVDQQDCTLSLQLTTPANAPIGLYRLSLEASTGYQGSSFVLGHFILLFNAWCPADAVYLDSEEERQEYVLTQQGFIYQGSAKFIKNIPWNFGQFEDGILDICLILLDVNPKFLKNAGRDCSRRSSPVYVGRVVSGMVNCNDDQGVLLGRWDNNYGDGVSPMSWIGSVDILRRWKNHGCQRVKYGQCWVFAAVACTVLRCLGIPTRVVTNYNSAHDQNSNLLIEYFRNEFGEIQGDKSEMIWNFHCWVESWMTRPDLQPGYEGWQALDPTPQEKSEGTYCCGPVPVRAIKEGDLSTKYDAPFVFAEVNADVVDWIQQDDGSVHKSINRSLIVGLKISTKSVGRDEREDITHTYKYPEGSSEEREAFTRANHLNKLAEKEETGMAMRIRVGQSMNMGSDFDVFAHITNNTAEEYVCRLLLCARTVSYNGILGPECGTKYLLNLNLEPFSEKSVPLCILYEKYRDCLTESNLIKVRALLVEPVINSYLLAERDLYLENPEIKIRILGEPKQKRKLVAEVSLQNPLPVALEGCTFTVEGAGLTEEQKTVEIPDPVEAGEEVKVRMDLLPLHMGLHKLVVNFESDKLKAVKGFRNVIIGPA
The following applies: under a modified assay condition; cited from earlier work.

The test system of experiment [3] is irradiated, senescent HRMEC cells. The experiment in a line: Senolytic assay: irradiated senescent vs non-senescent HRMEC cells (CellTiter-Glo). In kind it is cell-based, human. The settings on record: 1:3 dilution series, dose-dependent (FIG. 3A, FIG. 5).
From the text: as §1, §2

The target of experiment [4] is T2, cKGA (kidney-type glutaminase) (Homo sapiens, UniProt O94925).
T2 sequence (O94925 221-533 limits assumed): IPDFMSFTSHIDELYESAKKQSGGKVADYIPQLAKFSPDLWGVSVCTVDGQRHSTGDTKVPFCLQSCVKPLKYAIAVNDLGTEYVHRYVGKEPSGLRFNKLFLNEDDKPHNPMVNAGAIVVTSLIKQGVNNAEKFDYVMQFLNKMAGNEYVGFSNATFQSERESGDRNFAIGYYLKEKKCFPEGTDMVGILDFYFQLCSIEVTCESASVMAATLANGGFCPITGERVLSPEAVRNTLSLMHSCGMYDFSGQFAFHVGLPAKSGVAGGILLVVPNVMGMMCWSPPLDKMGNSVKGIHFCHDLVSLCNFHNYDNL
The following applies: cited from earlier work.

In the next experiment the target is T3, GPX4 (Mus musculus, UniProt O70325).
T3 construct: from tissue; host or cells: adult murine retina
The experiment in a line: GPX4 competitive target engagement gel-shift assay, adult murine retinas. The settings on record: integrated band density (FIGS. 8A-8C). In kind it is in vivo. Here is the method: A gel shift assay was developed for the detection of either in vitro cell line or in vivo tissue target engagement (TE) of a GPX4 inhibitor. See FIG. 7 for a schematic of the assay.
In vitro labeling protocol: Two frozen murine retinas were added directly to 0.5 mL Precellys® tubes with ceramic beads and 200 μL of cold mPER with 1× Roche EDTA-free protease inhibitors and 5 mM TCEP. The retina tissue was homogenized using a single 15 s burst at 4500 RPM at 4° C. The tubes were spun at 5 k×g for 5 min @ 4° C. to remove the foam, then all liquid was transferred to 1.5 mL Eppendorfs®. The samples were spun @ 20 k×g for 10 min at 4° C., and the clarified lysates were transferred to clean tubes. 27.5 μL of each of the vehicle controls were combined into one tube to provide a labeling standard sample.
For the labeling control, 50 μL of sample was added to 1 μL of 5 mM RSL3 and another 50 μL of sample was added to DMSO as a control. The samples were mixed and incubated for 1 hr at room temperature (RT). […]
Blots were blocked with 5% Milk in TBST for 1 hr. […] Anti-rabbit-HRP was used at 1:5000 in 5% milk in TBST for ˜1 hr RT and signal was detected using the Western Pico® ECL reagent. […] The integrated density of bands for +/−streptavidin was quantitated using ImageJ® (National Institutes of Health).

In the next experiment the target is T4, GLS2 (Homo sapiens, UniProt Q9UI32).
T4 sequence (Q9UI32 15-602): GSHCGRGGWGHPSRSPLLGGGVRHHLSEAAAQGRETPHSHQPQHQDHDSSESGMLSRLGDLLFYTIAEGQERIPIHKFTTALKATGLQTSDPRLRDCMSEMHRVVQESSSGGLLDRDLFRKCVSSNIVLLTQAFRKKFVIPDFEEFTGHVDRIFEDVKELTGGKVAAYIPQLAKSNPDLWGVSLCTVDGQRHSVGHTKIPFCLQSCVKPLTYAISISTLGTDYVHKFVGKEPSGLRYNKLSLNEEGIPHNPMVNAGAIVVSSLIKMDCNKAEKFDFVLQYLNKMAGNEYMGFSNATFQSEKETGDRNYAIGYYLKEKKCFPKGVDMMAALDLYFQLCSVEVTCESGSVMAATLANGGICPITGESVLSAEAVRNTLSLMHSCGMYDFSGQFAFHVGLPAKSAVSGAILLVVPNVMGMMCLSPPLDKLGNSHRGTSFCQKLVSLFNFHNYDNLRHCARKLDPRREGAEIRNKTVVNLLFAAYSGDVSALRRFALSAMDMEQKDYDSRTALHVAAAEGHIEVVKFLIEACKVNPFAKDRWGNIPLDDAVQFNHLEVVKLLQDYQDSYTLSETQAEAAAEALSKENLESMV
The settings on record: cited from earlier work.

T3 sequence (O70325 whole entry): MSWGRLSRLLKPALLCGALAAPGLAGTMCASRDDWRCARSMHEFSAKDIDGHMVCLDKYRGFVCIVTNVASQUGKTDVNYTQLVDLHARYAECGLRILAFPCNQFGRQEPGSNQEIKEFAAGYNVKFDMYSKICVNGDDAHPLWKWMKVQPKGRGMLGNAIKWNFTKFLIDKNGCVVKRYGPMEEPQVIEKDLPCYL

As to `O=C(/C(C[N+](=O)[O-])=N/O)N1CCN(C(c2ccc(Cl)cc2)c2ccc(Cl)cc2)CC1` [JKE-1674, (E)-1-(4-(bis(4-chlorophenyl)methyl)piperazin-1-yl)-2-(hydroxyimino)-3-nitropropan-1-one], the “selective killing of senescent HUVEC cells as compared to non-senescent HUVECs” value in experiment [1] is reported as “selectively senolytic”.
As for GK921, the pIC50 (usually −log10 of the IC50, conventionally taken in molar units) in experiment [2] is 5.05.
Regarding `Cc1onc(C(=O)N2CCN(C(c3ccc(Cl)cc3)c3ccc(Cl)cc3)CC2)c1[N+](=O)[O-]` [ML210], in experiment [3], the “selective killing of senescent HRMEC cells as compared to non-senescent HRMECs” value is “selectively senolytic”.
Turning to `[N-]=[N+]=CC(=O)CC[C@H](N)C(=O)O` [6-Diazo-5-oxo-L-norleucine], the pIC50 in experiment [4] was around 3.00.
For the compound `COC(=O)c1ccc([C@H]2c3[nH]c4ccccc4c3C[C@H](C(=O)OC)N2C(=O)CCl)cc1` [RSL3, (1S,3R)-methyl 2-(2-chloroacetyl)-1-(4-(methoxycarbonyl)phenyl)-2,3,4,9-tetrahydro-1H-pyrido[3,4-b]indole-3-carboxylate], the “GPX4 target engagement (TE)” value on GPX4 is on record as “dose-dependent GPX4 TE”. Further, the “selective killing of senescent HRMEC cells as compared to non-senescent HRMECs” value in experiment [3] is on record as “selectively senolytic”. The “selective killing of senescent HUVEC cells as compared to non-senescent HUVECs” value in experiment [1] is reported as “selectively senolytic”.
Take `CNC(=O)c1cn(C[C@H](F)CCc2ccc(NC(=O)Cc3cc(OC4CC(F)(F)C4)cc(C)n3)nn2)nn1` [IPN-60090 dihydrochloride]: on GLS2, the “activity against GLS-2” value is given as “no activity observed”.
